{
  "source": "patent US20230416703A1",
  "about": "“Methods and Materials for Producing Polyols and Electron Rich Compounds” (THE TRUSTEES OF PRINCETON UNIVERSITY, priority 2019, published 2023)",
  "key": {"Pyp1": {"molecular_target": "T1, Pyp1 (Saccharomyces cerevisiae, UniProt P53981)", "T1 construct": "made in house; host or cells: E. coli BL21 (DE3) Gold", "T1 sequence (P53981 whole entry)": "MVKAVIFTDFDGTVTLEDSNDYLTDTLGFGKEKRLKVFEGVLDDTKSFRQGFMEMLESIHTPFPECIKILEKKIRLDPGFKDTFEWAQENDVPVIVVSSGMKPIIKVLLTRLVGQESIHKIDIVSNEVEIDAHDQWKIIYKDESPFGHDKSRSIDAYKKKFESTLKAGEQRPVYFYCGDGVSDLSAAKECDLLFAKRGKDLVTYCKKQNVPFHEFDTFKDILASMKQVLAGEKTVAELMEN", "assay": "Phosphatase activity of purified recombinant Pyp1 against phosphorylated substrates", "assay_type": "biochemical, S. cerevisiae", "settings": "incubation with purified Pyp1, 0.5 mM substrate", "experimental": "Purified Pyp1 phosphatase activity was assayed in the presence of 0.5 mM substrate and 5 mM Mg^2+ (pH=7.0, 30° C.) by monitoring the appearance of free phosphate or the polyol. The y axis represents specific phosphatase activity (μmol product made per mg of protein per minute) (mean±range of N=2 replicates).\nPurified Pyp1's phosphatase activity was assayed against 0.5 mM ribitol-5P by LC-MS. […] (FIG. 10B). Pyp1's D-polyol phosphatase activity was measured in the presence of 0.5 mM substrate and 5 mM Mg^2+ (pH=7.0, 30° C.) by monitoring the appearance of phosphate or the polyol. The y-axis represents specific phosphatase activity (moles product per min per mg of protein) (mean±range, N=2).\nIn the initial screening of Pyp1's phosphatase activity, the gene encoding Pyp1 was amplified by PCR using S. cerevisiae genomic DNA. The amplified fragments were cloned into a modified pET15b vector (Novagen, Darmstadt, Germany) and overexpressed in the E. coli BL21(DE3) Gold strain (Stratagene, La Jolla, California) as previously described by Kuznetsova et al., J Biol Chem 2010, 285, 21049. The recombinant proteins were purified using metal ion affinity chromatography on nickel affinity resin (Qiagen, Hilden, Germany) to high homogeneity and stored at −80° C. Purified Pyp1 was screened for the presence of phosphatase activity against the general phosphatase substrate p-nitrophenyl phosphate (pNPP) and 90 phosphorylated metabolites as described previously by Kuznetsova et al., J Biol Chem 2006, 281, 36149. […]\nBriefly, the gene encoding Pyp1 was amplified by PCR using S. cerevisiae genomic DNA. The amplified fragments were cloned into a modified pET15b vector (Novagen, Darmstadt, Germany) and overexpressed in the E. coli BL21 (DE3) Gold strain (Stratagene, La Jolla, California) as previously described (Kuznetsova et al., 2010). The recombinant protein was purified using metal ion affinity chromatography on nickel chelate resin (Qiagen, Hilden, Germany) to high homogeneity and stored at −80° C. Purified Pyp1 was then screened for phosphatase activity as described previously (Kuznetsova et al., 2006)."}, "pyp1Δ cells": {"system": "pyp1Δ cells", "assay": "Growth rate of pyp1Δ yeast in the presence of ribitol", "assay_type": "cell-based, Saccharomyces cerevisiae", "from_the_text": "(§1) Wild type yeast and pyp1Δ cells growing on 1% trehalose in the absence or presence of 1% ribitol (upper panel) were switched to media with trehalose substituted by 1% glucose (lower panel). The y axis represents ratio of growth rates (mean±range of N=2 replicates) of cells growing in the presence of ribitol vs. cells growing in the absence of ribitol. […] The x axis represents hours after the switch and the y axis represents absolute intracellular concentration (mean±range of N=2 replicates). […] The x axis represents different growth rates and the y axis represents relative expression level of PYP1. […] The y axis represents absolute intracellular concentration, except for the panel displaying the NADPH/NADP^+ ratio (mean±range of N=2 replicates).\n(§2) (FIG. 12A). Growth of wild type and pyp1Δ yeast on sorbitol. Yeast cells grown on YPD medium were switched to minimal media containing 2% sorbitol as the carbon source. The x-axis represents days after the switch and the y-axis represents optical density (A600). (FIG. 12B). Absolute concentration of sorbitol-6-phosphate in wild type and pyp1Δ cells in the experiment shown in (A). The x-axis represents days after the switch and the y-axis represents absolute intracellular concentration (mean±range, N=2). (FIG. 12C). Growth of wild type and pyp1Δ cells on glycerol and mannitol. […]"}, "[1]": {"molecular_target": "T2, yeast Pgi1 (phosphoglucose isomerase) (Saccharomyces cerevisiae, UniProt P12709)", "T2 construct": "purchased Sigma Aldrich (St. Louis, MO)", "T2 sequence (P12709 2-554 limits assumed)": "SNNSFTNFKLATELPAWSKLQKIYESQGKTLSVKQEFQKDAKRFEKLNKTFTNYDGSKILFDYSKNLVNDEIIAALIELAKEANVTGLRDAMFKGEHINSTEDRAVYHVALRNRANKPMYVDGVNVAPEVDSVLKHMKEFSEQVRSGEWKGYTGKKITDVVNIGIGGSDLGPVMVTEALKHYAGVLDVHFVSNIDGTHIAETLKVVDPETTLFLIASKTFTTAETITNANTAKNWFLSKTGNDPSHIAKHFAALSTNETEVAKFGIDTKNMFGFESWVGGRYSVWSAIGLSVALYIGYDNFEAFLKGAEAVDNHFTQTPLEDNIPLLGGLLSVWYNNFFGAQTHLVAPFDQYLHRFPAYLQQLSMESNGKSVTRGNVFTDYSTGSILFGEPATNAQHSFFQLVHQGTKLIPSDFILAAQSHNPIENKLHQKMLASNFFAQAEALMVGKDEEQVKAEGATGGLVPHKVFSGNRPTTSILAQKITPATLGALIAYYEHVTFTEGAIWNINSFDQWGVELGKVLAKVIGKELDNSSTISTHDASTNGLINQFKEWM", "assay": "Inhibition of purified Pgi1 (phosphoglucose isomerase) activity, LC/MS detection of glucose-6-phosphate", "assay_type": "biochemical", "settings": "for Inhibition of Pgi1 (in words): 0.6 mM fructose-6-phosphate, 0.05-5 mM polyol phosphate", "experimental": "Purified Pgi1's activity was assayed in the presence of 0.6 mM fructose-6-phosphate, 5 mM Mg^2+ (pH=7.0, 30° C.) and a range of 0.05-5 mM of sorbitol-6P or ribitol-5P by monitoring the appearance of glucose-6-phosphate. The y axis represents relative Pgi1 activity (mean±range of N=2 replicates).\nFIGS. 13A-13C show polyol phosphates inhibit phosphoglucose isomerase in vitro and in growing yeast. (FIG. 13A). Activity of the purified Pgi1 was assayed in the presence of 0.6 mM fructose-6-phosphate (substrate), 5 mM Mg2+ (pH=7.0, 30° C.) and a range of 0.05-5 mM of sorbitol-6P or ribitol-5P by monitoring the appearance of glucose-6-phosphate. The x-axis represents polyol phosphate concentration and the y-axis represents relative Pgi1 activity (mean±range of N=2 replicates). (FIG. 13B). […] This experiment is used to define a characteristic low-Pgi metabolome. (FIG. 13C). Metabolome profiling of pyp1Δ (dark red) and wild type (blue) cells at t=1 h after switching from trehalose+ribitol to glucose+ribitol.\nFor the determination of IC50 of sorbitol-6-phosphate and ribitol-5-phosphate on phosphoglucose isomerase, yeast Pgi1 was purchased from Sigma Aldrich (St. Louis, MO). Phosphoglucose isomerase activity was determined by adding fructose-6-phosphate and monitoring the appearance of glucose-6-phosphate using LC/MS. It was determined that the LC/MS-based assay is consistently more sensitive and accurate than the colometric-based assay, which involves coupling the Pgi1 activity with glucose-6-phosphate dehydrogenase activity and monitoring the appearance of NADH. The reaction mixture contained 100 mM Tris-HCl at a pH of 8.0, 10 mM MgCl2, 0.6 mM fructose-6-phosphate (concentration in cells grown exponentially on glucose), and a range of sorbitol-6-phosphate and ribitol-5-phosphate concentrations (0.05 to 5 mM). The resulting data were again fitted to the Hill equation using the GraphPad Prism Software.\nTo measure the inhibition of Pgi by sorbitol-6-phosphate and ribitol-5-phosphate, yeast Pgi1 was purchased from Sigma Aldrich (St. Louis, MO). Phosphoglucose isomerase activity was determined by adding fructose-6-phosphate and monitoring the appearance of glucose-6-phosphate using LC/MS. We found such LC/MS based assay is consistently more sensitive and accurate than the more typical colorimetric-based assay, which involves coupling the Pgi1 activity with glucose-6-phosphate dehydrogenase activity and monitoring the appearance of NADH. The reaction mixture contained 100 mM Tris-HCl at pH 8.0, 10 mM MgCl2, 0.6 mM fructose-6-phosphate (the physiological concentration in cells grown exponentially on glucose), and a range of sorbitol-6-phosphate and ribitol-5-phosphate concentrations (0.05 to 5 mM). The resulting data were fitted to the Hill equation using the GraphPad Prism Software."}, "wild type yeast cells": {"system": "wild type yeast cells", "assay": "Growth rate of wild type yeast in the presence of ribitol", "assay_type": "cell-based, Saccharomyces cerevisiae", "settings": "1% trehalose +/- 1% ribitol", "from_the_text": "as §1, §2"}},
  "note": "“Also recorded” adds a separate entry of the source.",
  "data": [
    {"smiles": "O=P(O)(O)OCC(O)CO", "note": "(racemic) [racemic glycerol-3P]", "values": [
      {"measurement": "Pyp1 phosphatase activity on substrate (in words)", "setting": "Pyp1", "result": "hydrolysis"}
    ]},
    {"smiles": "O=C(CO)[C@@H](O)[C@H](O)[C@H](O)[C@H](O)[C@H](O)COP(=O)(O)O", "note": "[O8P, D-Glycero-D-Altro-Octulose-8-phosphate]", "values": [
      {"measurement": "Pyp1 phosphatase activity on substrate (in words)", "setting": "Pyp1", "result": "No detectable phosphatase activity"},
      {"measurement": "Pyp1 phosphatase activity on substrate (in words)", "setting": "Pyp1; listed as octulose-8P", "result": "no detectable phosphatase activity"}
    ]},
    {"smiles": "O=C[C@H](O)[C@H](O)COP(=O)(O)O", "note": "[erythrose-4P]", "values": [
      {"measurement": "Pyp1 phosphatase activity on substrate (in words)", "setting": "Pyp1", "result": "hydrolysis"}
    ]},
    {"smiles": "O=P(O)(O)OCC(O)CO", "note": "[glycerol-1P, D-glycerol-3-phosphate]", "values": [
      {"measurement": "Pyp1 phosphatase activity on substrate (in words)", "setting": "Pyp1", "result": "depletion"},
      {"measurement": "Pyp1 phosphatase activity on substrate (in words)", "setting": "Pyp1; listed as Glycerol-1-phosphate", "result": "in vitro substrate"}
    ]},
    {"smiles": "O=P(O)(O)OC[C@H](O)CO", "note": "[glycerol-3P, L-glycerol-3-phosphate]", "values": [
      {"measurement": "Pyp1 phosphatase activity on substrate (in words)", "setting": "Pyp1; listed as (L)-glycerol-3P", "result": "very low activity"}
    ]},
    {"smiles": "O=P(O)(O)OC[C@@H](O)[C@@H](O)[C@@H](O)CO", "note": "[ribitol-5P, ribitol-5-phosphate]", "values": [
      {"measurement": "Lower growth rate in pyp1Δ cells after carbon upshift", "setting": "pyp1Δ cells; switched from trehalose + ribitol to glucose plus ribitol", "result": "~50", "unit": "%"},
      {"measurement": "Inhibition of Pgi1 (in words)", "setting": "[1]", "result": "did not inhibit Pgi1 as strongly as sorbitol-6P; also recorded: less potently"},
      {"measurement": "Pyp1 phosphatase activity on substrate (in words)", "setting": "Pyp1", "result": "depletion"}
    ]},
    {"smiles": "OC[C@@H](O)[C@@H](O)[C@@H](O)CO", "note": "[ribitol]", "values": [
      {"measurement": "Decrease of the growth rate of pyp1Δ cells", "setting": "pyp1Δ cells; 1% trehalose +/- 1% ribitol", "result": "~20", "unit": "%"},
      {"measurement": "Effect on growth rate of wild type cells growing on trehalose", "setting": "wild type yeast cells", "result": "does not affect the growth rate; also recorded: without impacting growth rate"}
    ]},
    {"smiles": "O=P(O)(O)OC[C@@H](O)[C@@H](O)[C@H](O)[C@@H](O)CO", "note": "[sorbitol-6P, sorbitol-6-phosphate]", "values": [
      {"measurement": "Inhibition of Pgi1 (in words)", "setting": "[1]", "result": "inhibit"},
      {"measurement": "inhibition at 1000 µM", "setting": "[1]; 1 mM sorbitol-6P added, read-out: Pgi1 activity inhibited", "result": "> 85", "unit": "%"},
      {"measurement": "IC50", "setting": "[1]; purified Pgi1, 0.6 mM fructose-6-phosphate, inhibitor range 0.05-5 mM", "result": "~50", "unit": "µM"},
      {"measurement": "Pyp1 phosphatase activity on substrate (in words)", "setting": "Pyp1", "result": "depletion; also recorded: hydrolysis"}
    ]}
  ]
}
